From patent US8952024B2, “Herbicidal pyrimidone derivatives” (E I du Pont de Nemours and Company, priority 2009, dated 2015)

Key:
Assay in all cases: Test B pre-/postemergence plant response
Type in all cases: in vivo
[1] = tested on: large crabgrass (Digitaria sanguinalis); details: for Plant response rating, Crabgrass, Large: Postemergence
Procedure, shortened: (§1)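 Visual injury, 0–100 scale (100 = complete control), rated against controls after 13 to 15 days in greenhouse. Pre-emergence: seeds in loam/sand soil, treated at planting. Post-emergence: 1- to 4-leaf plants (2 to 18 cm) in peat/vermiculite medium. Compounds formulated in non-phytotoxic solvent with surfactant.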

[2] = tested on: downy bromegrass (Bromus tectorum); details: for Plant response rating, Bromegrass, Downy: Postemergence
Procedure, shortened: as §1

[3] = tested on: soybean (Glycine max); details: for Plant response rating, Soybean: Postemergence
Procedure, shortened: as §1

[4] = tested on: Surinam grass (Brachiaria decumbens); details: for Plant response rating, Surinam Grass: Postemergence
Procedure, shortened: as §1

[5] = tested on: kochia (Kochia scoparia); details: for Plant response rating, Kochia: Postemergence
Procedure, shortened: as §1

[6] = tested on: woolly cupgrass (Eriochloa villosa); details: for Plant response rating, Cupgrass, Woolly: Postemergence
Procedure, shortened: as §1

[7] = tested on: ragweed (common ragweed, Ambrosia elatior); details: for Plant response rating, Ragweed: Postemergence
Procedure, shortened: as §1

[8] = tested on: blackgrass (Alopecurus myosuroides); details: for Plant response rating, Blackgrass: Postemergence
Procedure, shortened: as §1

[9] = tested on: yellow nutsedge (Cyperus esculentus); details: for Plant response rating, Nutsedge, Yellow: Postemergence
Procedure, shortened: as §1

[10] = tested on: wheat (Triticum aestivum); details: for Plant response rating, Wheat: Postemergence
Procedure, shortened: as §1

[11] = tested on: velvetleaf (Abutilon theophrasti); details: for Plant response rating, Velvetleaf: Postemergence
Procedure, shortened: as §1

[12] = tested on: pigweed (Amaranthus retroflexus); details: for Plant response rating, Pigweed: Postemergence
Procedure, shortened: as §1

[13] = tested on: wild oat (Avena fatua); details: for Plant response rating, Oat, Wild: Postemergence
Procedure, shortened: as §1

[14] = tested on: johnsongrass (Sorghum halepense); details: for Plant response rating, Johnsongrass: Postemergence
Procedure, shortened: as §1

[15] = tested on: goosegrass (Eleusine indica); details: for Plant response rating, Goosegrass: Postemergence
Procedure, shortened: as §1

[16] = tested on: Italian ryegrass (Lolium multiflorum); details: for Plant response rating, Ryegrass, Italian: Postemergence
Procedure, shortened: as §1

[17] = tested on: lambsquarters (Chenopodium album); details: for Plant response rating, Lambsquarters: Postemergence
Procedure, shortened: as §1

[18] = tested on: corn (Zea mays); details: for Plant response rating, Corn: Postemergence
Procedure, shortened: as §1

[19] = 31 g ai/ha, 0 to 100 scale (0 no effect, 100 complete control)
[20] = 125 g ai/ha, scale 0 to 100 (0 no effect, 100 complete control)
[21] = 250 g ai/ha, scale 0 to 100 (0 no effect, 100 complete control), 13 to 15 days
[22] = 62 g ai/ha, scale 0 to 100 (0 no effect, 100 complete control)
[23] = 62 g ai/ha, postemergence, 0 is no effect, 100 is complete control, 13 to 15 days

CCn1c(-c2cccc(F)c2)ncc(C(=O)C2=C(O)C3CCC(C3)C2=O)c1=O (stereo not drawn) [Compound 236]
Plant response rating, Crabgrass, Large [1, 19]: 75
Plant response rating, Crabgrass, Large [1, 20]: 98
Plant response rating, Crabgrass, Large [1, 21]: 100
Plant response rating, Crabgrass, Large [1, 22]: 90
Plant response rating, Bromegrass, Downy [2, 19]: 0
Plant response rating, Bromegrass, Downy [2, 20]: 10
Plant response rating, Bromegrass, Downy [2, 21]: 25
Plant response rating, Bromegrass, Downy [2, 22]: 5
Plant response rating, Soybean [3, 19]: 90
Plant response rating, Soybean [3, 21]: 100
Plant response rating, Soybean [3, 22]: 98
Plant response rating, Surinam Grass [4, 19]: 60
Plant response rating, Surinam Grass [4, 22]: 70
Plant response rating, Kochia [5, 19]: 80
Plant response rating, Kochia [5, 20]: 100
Plant response rating, Kochia [5, 21]: 100
Plant response rating, Kochia [5, 22]: 98
Plant response rating, Cupgrass, Woolly [6, 19]: 70
Plant response rating, Cupgrass, Woolly [6, 20]: 95
Plant response rating, Cupgrass, Woolly [6, 22]: 85
Plant response rating, Ragweed [7, 19]: 80
Plant response rating, Ragweed [7, 21]: 98
Plant response rating, Ragweed [7, 22]: 95
Plant response rating, Blackgrass [8, 19]: 0
Plant response rating, Blackgrass [8, 20]: 30
Plant response rating, Blackgrass [8, 21]: 40
Plant response rating, Blackgrass [8, 22]: 5
Plant response rating, Nutsedge, Yellow [9, 19]: 0
Plant response rating, Nutsedge, Yellow [9, 20]: 15
Plant response rating, Nutsedge, Yellow [9, 21]: 65
Plant response rating, Nutsedge, Yellow [9, 22]: 15
Plant response rating, Wheat [10, 19]: 0
Plant response rating, Wheat [10, 21]: 60
Plant response rating, Wheat [10, 22]: 10
Plant response rating, Velvetleaf [11, 19]: 98
Plant response rating, Velvetleaf [11, 21]: 100
Plant response rating, Velvetleaf [11, 22]: 100
Plant response rating, Pigweed [12, 19]: 85
Plant response rating, Pigweed [12, 22]: 85
Plant response rating, Oat, Wild [13, 19]: 0
Plant response rating, Oat, Wild [13, 21]: 60
Plant response rating, Oat, Wild [13, 22]: 0
Plant response rating, Johnsongrass [14, 19]: 0
Plant response rating, Johnsongrass [14, 20]: 20
Plant response rating, Johnsongrass [14, 21]: 55
Plant response rating, Johnsongrass [14, 22]: 15
Plant response rating, Goosegrass [15, 19]: 80
Plant response rating, Goosegrass [15, 20]: 95
Plant response rating, Goosegrass [15, 21]: 100
Plant response rating, Goosegrass [15, 22]: 90
Plant response rating, Ryegrass, Italian [16, 19]: 0
Plant response rating, Ryegrass, Italian [16, 21]: 5
Plant response rating, Ryegrass, Italian [16, 22]: 0
Plant response rating, Lambsquarters [17, 19]: 98
Plant response rating, Lambsquarters [17, 20]: 100
Plant response rating, Lambsquarters [17, 21]: 100
Plant response rating, Lambsquarters [17, 22]: 100
Plant response rating, Corn [18, 19]: 15
Plant response rating, Corn [18, 20]: 70
Plant response rating, Corn [18, 22]: 60

CCCn1c(-c2cccc(F)c2)ncc(C(=O)C2=C(O)CCCC2=O)c1=O [Compound 127]
Crabgrass, Large plant response rating (0 to 100 scale) [1, 23]: 85
Plant response rating, Crabgrass, Large [1, 19]: 80
Plant response rating, Crabgrass, Large [1, 20]: 90
Plant response rating, Crabgrass, Large [1, 21]: 95
Bromegrass, Downy plant response rating (0 to 100 scale) [2, 23]: 10
Plant response rating, Bromegrass, Downy [2, 19]: 5
Plant response rating, Bromegrass, Downy [2, 20]: 20
Plant response rating, Bromegrass, Downy [2, 21]: 40
Soybean plant response rating (0 to 100 scale) [3, 23]: 98
Plant response rating, Soybean [3, 19]: 95
Plant response rating, Soybean [3, 20]: 98
Plant response rating, Soybean [3, 21]: 98
Surinam Grass plant response rating (0 to 100 scale) [4, 23]: 75
Plant response rating, Surinam Grass [4, 19]: 75
Plant response rating, Surinam Grass [4, 20]: 85
Plant response rating, Surinam Grass [4, 21]: 90
Kochia plant response rating (0 to 100 scale) [5, 23]: 98
Plant response rating, Kochia [5, 19]: 45
Plant response rating, Kochia [5, 20]: 100
Plant response rating, Kochia [5, 21]: 100
Cupgrass, Woolly plant response rating (0 to 100 scale) [6, 23]: 75
Plant response rating, Cupgrass, Woolly [6, 19]: 75
Plant response rating, Cupgrass, Woolly [6, 20]: 85
Plant response rating, Cupgrass, Woolly [6, 21]: 85
Ragweed plant response rating (0 to 100 scale) [7, 23]: 85
Plant response rating, Ragweed [7, 19]: 70
Plant response rating, Ragweed [7, 20]: 98
Plant response rating, Ragweed [7, 21]: 98
Blackgrass plant response rating (0 to 100 scale) [8, 23]: 20
Plant response rating, Blackgrass [8, 19]: 5
Plant response rating, Blackgrass [8, 20]: 25
Plant response rating, Blackgrass [8, 21]: 40
Nutsedge, Yellow plant response rating (0 to 100 scale) [9, 23]: 70
Plant response rating, Nutsedge, Yellow [9, 19]: 65
Plant response rating, Nutsedge, Yellow [9, 20]: 75
Plant response rating, Nutsedge, Yellow [9, 21]: 80
Wheat plant response rating (0 to 100 scale) [10, 23]: 10
Plant response rating, Wheat [10, 19]: 5
Plant response rating, Wheat [10, 20]: 25
Plant response rating, Wheat [10, 21]: 40
Velvetleaf plant response rating (0 to 100 scale) [11, 23]: 95
Plant response rating, Velvetleaf [11, 19]: 90
Plant response rating, Velvetleaf [11, 20]: 100
Plant response rating, Velvetleaf [11, 21]: 100
Pigweed plant response rating (0 to 100 scale) [12, 23]: 95
Plant response rating, Pigweed [12, 19]: 80
Plant response rating, Pigweed [12, 20]: 95
Plant response rating, Pigweed [12, 21]: 100
Oat, Wild plant response rating (0 to 100 scale) [13, 23]: 10
Plant response rating, Oat, Wild [13, 19]: 5
Plant response rating, Oat, Wild [13, 20]: 25
Plant response rating, Oat, Wild [13, 21]: 60
Johnsongrass plant response rating (0 to 100 scale) [14, 23]: 70
Plant response rating, Johnsongrass [14, 19]: 65
Plant response rating, Johnsongrass [14, 20]: 80
Plant response rating, Johnsongrass [14, 21]: 95
Goosegrass plant response rating (0 to 100 scale) [15, 23]: 75
Plant response rating, Goosegrass [15, 19]: 65
Plant response rating, Goosegrass [15, 20]: 75
Plant response rating, Goosegrass [15, 21]: 85
Ryegrass, Italian plant response rating (0 to 100 scale) [16, 23]: 5
Plant response rating, Ryegrass, Italian [16, 19]: 0
Plant response rating, Ryegrass, Italian [16, 20]: 5
Plant response rating, Ryegrass, Italian [16, 21]: 30
Lambsquarters plant response rating (0 to 100 scale) [17, 23]: 85
Plant response rating, Lambsquarters [17, 19]: 75
Plant response rating, Lambsquarters [17, 20]: 90
Plant response rating, Lambsquarters [17, 21]: 95
Corn plant response rating (0 to 100 scale) [18, 23]: 25
Plant response rating, Corn [18, 19]: 5
Plant response rating, Corn [18, 20]: 25
Plant response rating, Corn [18, 21]: 75
